Results from patent US5659041A, “Hydrazino-type radionuclide chelators having an N3 S configuration” (Resolution Pharmaceuticals, Inc., priority 1994, dated 1997).
Each block holds one compound with its values, some of them ahead of it. Numbered stars: 1 amine (or outer) side, 2 acyl side, 3 side chain; on linkers, the order of the positions; unused ones are H or OH. Square brackets hold non-standard residues; d marks the D form. Peptide text beside a SMILES is read from it. X2 = CN(N[*:1])c1ccc(C(=O)[*:2])cn1; X1 = O=C(CSCN[*:1])[*:2]

Columns and labels:
[1] = Extent of complexation of 99mTc with chelators (radioactivity of eluted C-18 Sep-Pak fractions); format: physicochemical; settings: for Chelator (EtOH-saline eluate), percent of total / Chelator (EtOH-saline eluate), radioactivity / TcO2, percent of total / TcO2, radioactivity / TcO4- (HCl eluate), percent of total / TcO4- (HCl eluate), radioactivity of eluted fraction: Example 2: SnCl2, pH 6, Example 4: sodium dithionite, pH 12-13, 75° C.
Procedure: The chelator N-(S-benzoylmercaptoacetyl)-glycyl-2-pyridylhydrazide (example 2, 1 mg) was dissolved in EtOH-water and hydrolyzed by heating with NaOH, after which the reaction mixture was neutralized with acetic acid to pH 6. 350 μg hydrolyzed chelator was reacted with 103 MBq TcO4^- and 10 μg SnCl2 at room temperature. […] To achieve adequate separation of the chelator, the solution was then loaded on a C-18 SepLPak column which was eluted with dilute HCI to remove Tc04-. Subsequent elution with 1:1 EtOH-saline removed the chelator while Tc02 remained on the column.
Another chelator was similarly labeled. Particularly, 300 μg of the hydrolyzed chelator N-(S-benzoylmercaptoacetyl)-glycyl-3-(6-chloropyridazyl)-hydrazide (example 4) was adjusted to pH 12-13 and reduced with 100 μg of sodium dithionite for 10 minutes at 75° C. The resulting mixture was then loaded on a C-18 Sep-Pak column and eluted with dilute HCI followed by EtOH-saline. The extent of complexation of ^99m Tc with chelators was measured by radioactivity of the eluted fractions; results are shown in the table below.

[2] = In vivo distribution of 99mTc labeled chelators within rats; set-up: species or system male Wistar rats; settings: rat, i.v. tail vein
Procedure: Distribution within rats of selected chelators and a reference chelator was determined using established protocols. Briefly, male Wistar rats (Charles River, 200 g) were anesthetized with somnitol (40 to 50 mg/kg) and 200 μL of the labeled chelator (ie. 200 μCi) was injected intravenously via the tail vein. Serial whole-body scintigrams were acquired for first 10 minutes. After further images were obtained at 60 and 120 minutes, the rat was killed with anesthesia and samples of organs (blood, heart, lung, liver, spleen, kidney, muscle, GI tract) were weighed and counted in either a well-type gamma counter or in a gamma dose calibrator. Dose calculations were made based On the assumption that rats weighed 200 g and that the blood volume constituted 8% body weight. All results were corrected for the residual dose in the tail.

[3] = Labeling of chelator-conjugate with 99mTc (HPLC radioactivity of fractions); format: physicochemical; settings: pertechnetate, stannous gluconate, boiling water bath 12 minutes
Procedure: The chelator-conjugate of example 11 (200 μL, 1 mg/mL saline) was injected into a 3 mL vacutainer with 100 μL pertechnetate (10 mCi) and 100 μL stannous gluconate (50 μg stannous chloride and 1 mg sodium gluconate). The tube was placed in a boiling water bath for 12 minutes and then filtered through a Watman PVDF syringe filter to collect the labeled conjugate solution which was further diluted with saline to prepare an injectable solution (2 Mbq/mL). The chelator-conjugate was isolated by HPLC (Beckman) from a (20 μL) sample (before dilution) to determine the labeling yield by measuring radioactivity of the fractions. 70.8%, 5.1% and 15.0% of the label was found in each of three fractions eluted for a 90.9% total labeling yield.

[4] = system: "Tuftsin" receptors on leukocytes; assay: Binding of TKPPR peptide to Tuftsin receptors on leukocytes
[5] = 200 μCi, organs counted after 120 minutes images

Compound: O=C(CSC(=O)c1ccccc1)NCC(=O)NNc1ccccn1 [Example 2, N-(S-benzoylmercaptoacetyl)-glycyl-2-pyridylhydrazide]
Chelator (EtOH-saline eluate), percent of total [1]: 68%
Chelator (EtOH-saline eluate), radioactivity [1]: 27.6 MBq
TcO2, percent of total [1]: 31%
TcO2, radioactivity [1]: 12.5 MBq
TcO4- (HCl eluate), percent of total [1]: 1%
TcO4- (HCl eluate), radioactivity of eluted fraction [1]: 0.15 MBq
activity present as TcO2 ([1]; SnCl2 at room temperature, pH 6, did not change after heating 10 minutes at 80° C.): Approximately half activity was present as TcO2
dose in the liver and GI tract [2, 5]: about 60%
dose remaining in the blood [2, 5]: about 6%

Compound: COC(=O)CC[C@H](NC(=O)CSC(=O)c1ccccc1)C(=O)NNc1ccccn1 [Example 3, No(S-benzoylmercaptoacetyl)-L-glutamyl-(gamma-methyl ester)-2-pyridylhydrazide]
accumulation in the kidney ([2]; 200 μCi, compared with the other chelators): greatest accumulation in the kidney

Compound: CC(=O)NCSCC(=O)N[C@@H](CO)C(=O)NN(C)c1ccc(C(=O)NCC(=O)N[C@H](C(=O)N[C@@H](CCCCN)C(=O)N2CCC[C@H]2C(=O)N2CCC[C@H]2C(=O)N[C@@H](CCCNC(=N)N)C(=O)O)[C@@H](C)O)cn1 [Example 11, S-Acm-Mercaptoacetyl-Ser-N-methylhydrazino nicotinic acid- Gly--Thr--Lys--Pro--Pro--Arg] (Ac-[X1]S[X2]GTKPPR-OH)
total labeling yield [3]: 90.9%

More lines, main results first:

Chelator (EtOH-saline eluate), percent of total [1]: 78%
Chelator (EtOH-saline eluate), radioactivity [1]: 14.19 MBq
TcO2, percent of total [1]: 14%
TcO2, radioactivity [1]: 2.55 MBq
TcO4- (HCl eluate), percent of total [1]: 8%
TcO4- (HCl eluate), radioactivity of eluted fraction [1]: 1.38 MBq
dose in the liver and GI tract [2, 5]: About 70%
Compound: O=C(CSC(=O)c1ccccc1)NCC(=O)NNc1ccc(Cl)nn1 [Example 4, N-(S-benzoylmercaptoacetyl)-glycyl-3-(6-chloropyridazyl)-hydrazide]
clearance from the blood (and other tissues) ([2]; 200 μCi): fastest clearance from the blood and other tissues
route of elimination ([2]; 200 μCi): mainly eliminated through the liver and GI tract

dose localized in the GI tract [2, 5]: 55%
dose remaining in the blood [2, 5]: about 10%
Compound: COC(=O)CC[C@H](NC(=O)CSC(=O)c1ccccc1)C(=O)NNc1ccc(Cl)nn1 [Example 5, N-(S-benzoylmercaptoacetyl)-L-glutamyl-(gamma-methylester)-3-(6-chloropyridazyl)-hydrazide]

retention in the blood pool ([2]; reference chelator lacking hydrazide): extensively retained in the blood pool
Compound: O=C(CNC(=O)CSC(=O)c1ccccc1)NCc1ccccn1 [N-(S-benzoylmercaptoacetyl)-glycyl-2-pyridylmethylamide, reference compound]

binding to "Tuftsin" receptors on leukocytes [4]: binds particularly well
Compound: TKPPR
